Holding throughout (assay type): cell-based, human
For one test, the system named is primary ALL blast cells. Kind of test: Ex-vivo viability of primary leukemia cells (trypan blue dye exclusion). The protocol: The efficacy of PF-00477736 was confirmed in primary blast cells from 14 newly diagnosed cases including ten BCR-ABL1-positive (71 %) cases and four BCR-ABL1-negative ALL cases (29 %). Leukemic cells were incubated with increasing concentrations of drug (0.1, 0.5, and 1 μM) for 24 h. […]
In order to assess the cell viability after treatment with PF-00477736 (Pfizer), ALL cell lines were seeded in 96-well plates at 50,000 cell/100 μl/well with increasing concentrations of drug (0.005–2 μM) for 24 and 48 h and incubated at 37 °C. Cell viability was assessed by adding WST-1 reagent (Roche Applied Science, Basel, Switzerland) to the culture medium at 1:10 dilution. Cells were incubated at 37 °C, and the optical density was measured by microplate ELISA reader at λ = 450 after 3 h. […] In ex-vivo primary leukemia cells, the effects on cell viability were assessed by counting viable and non-viable cell numbers by the trypan blue dye exclusion method. […] Cellular viability was calculated as a percentage of the viable cells compared to the untreated controls (DMSO 0.1 %).

The subject of a further test is NALM-6 cell line. Briefly: Cell cycle analysis (propidium iodide). The note with it: 0.1, 0.5, 1 μM, 24 h; reduced percentage of cells in G1 phase. Here is the method:
(§1) The effect of the inhibition of Chk1 pathway on cell cycle progression was evaluated in RPMI-8402, BV-173, SUP-B15, and NALM-6 cell lines. Cells were incubated with increasing concentrations of PF-00477736 for 6 and 24 h and then stained with propidium iodide to quantify the DNA amount.
(§2) In order to evaluate the effect of PF-00477736 on cell cycle progression, NALM-6, SUPB-15, RPMI-8402, and BV-173 cell lines were seeded in a 24-well plate at 500,000 cell/1 ml with increasing concentrations of PF-00477736 (0.1, 0.5, and 1 μM for NALM-6 and SUP-B15; 0.05, 0.1, and 0.2 μM for RPMI-8402 and BV-173). After 6 and 24 h, cells were harvested and fixed overnight using ethanol at 70 %. Then, cells were stained using PI/RNase Staining Buffer according to the manufacturer’s instruction (BD Pharmingen), and the cell cycle profile was detected using FACSCanto II instrument. The percentage of the different cell cycle phases was performed using the DNA cell-cycle analysis software for flow cytometry data, ModFit LT (Verity).

The test system of test [1] is RPMI-8402, BV-173, and SUP-B15 cell lines. Kind of test: Cell cycle analysis (propidium iodide). The note with it: increasing concentrations, 24 h; concomitant increment of cell debris. Here is the method:
as §1, §2

1 compound from PMC4635624, “In vitro and in vivo single-agent efficacy of checkpoint kinase inhibition in acute lymphoblastic leukemia” (Journal of Hematology & Oncology, 2015) can be followed below.

Values joined by “and” are separate entries in the source; they are usually repeats but may differ in a detail not shown here. Equal entries are not always repeated. Where two headings read alike, the source gives them in different places.

As for `Cn1cc(-c2[nH]c3cc(NC(=O)[C@H](N)C4CCCCC4)cc4c3c2C=NNC4=O)cn1` [PF-00477736], the IC50 in the test on primary ALL blast cells (primary ALL sample of one patient per table row (ID in c1), class of IC50 at 24 hours, read-out: Sensitivity) was 500 to 1000 nM and 100 to 500 nM; in the test with primary ALL blast cells (primary blast cells, 21 % (3/14) of cases, 24 h, read-out: IC50 at 24 h, poor responders), above 1000 nM. Moreover, the cell cycle profile result in the test on NALM-6 cell line was “progressively increased the percentage of cells in G2/M phase”; in test [1], “progressive reduction of the number of cells in S and G2/M phase”.
